Experimental data: ChEMBL document CHEMBL1201862, “PubChem BioAssay data set” (2004)
Values joined by “and” are separate entries in the source; they are usually repeats but may differ in a detail not shown here. Equal entries are not always repeated.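 Compound exposure: 48 hours, 5 concentrations, 96-well plates. GI50 marks 50% less growth.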 Active and inactive are the calls of the source. Rule as the data show it: active = GI50 up to about 1.1 µM and inactive = higher. Where a SMILES comes first, the peptide text is derived from it. [ ]: non-standard residue; d: D form. The star is where a group is joined. Phe(4-NO2) = N[CH](Cc1ccc([N+](=O)[O-])cc1)C(=O)O; Boc = CC(C)(C)OC(=O)*; OtBu = CC(C)(C)O*

Assays:
Test in all cases: DTP human tumour cell line panel, 48 h
BT-549 = tested on: BT-549
T47D = tested on: T47D
HOP-18 = tested on: HOP-18
KM-20L2 = tested on: KM-20L2
LXFL 529 = tested on: LXFL 529
M19-MEL = tested on: M19-MEL
SNB-78 = tested on: SNB-78
RXF 631 = tested on: RXF 631
XF498 = tested on: XF498

Compound	GI50 (BT-549)	GI50 (T47D)	GI50 (KM-20L2)	GI50 (LXFL 529)	GI50 (M19-MEL)	also measured
C=CCSC1=N/C(=C\c2ccc(C)cc2)C(=O)N1CC=C	23.6 µM (inactive)	25.9 µM (inactive)	–	–	–	–
NCCCc1nonc1C(=O)O	–	> 100 µM (inactive)	–	–	–	–
COc1ccc(/C=N/N=C(\N)NO)c(O)c1	> 10 µM (inactive)	> 10 µM (inactive)	–	–	–	–
Cc1cc(OCc2nnc3n2N=C(c2cc(F)c(Cl)cc2Cl)/C(=C/c2ccc(Cl)cc2)S3)ccc1Cl	–	20.4 µM (inactive)	–	–	–	–
S=C(Nc1ccc(/N=N/c2ccccc2)cc1)SCc1ccccc1	18.3 µM (inactive)	28.3 µM (inactive)	–	–	–	–
CC1=NN(c2nc(N)nc(CBr)n2)C(C)(C)C1	11.8 µM (inactive)	5.97 µM (inactive)	–	–	–	–
CCCCC1=C(C(=O)N2CCOCC2)C2(OCCO2)C1Cl (configuration not stated)	–	46 µM (inactive)	–	–	–	–
O=C(c1ccccc1)C1CCCCN1C(=O)c1ccccc1 (configuration not stated)	–	–	> 100 µM (inactive)	> 100 µM (inactive)	> 100 µM (inactive)	GI50 (HOP-18): > 100 µM (inactive); GI50 (SNB-78): > 100 µM (inactive)
COc1cccc(C2CC(C)(N3CCCC3)Oc3cc4c(cc32)OCO4)c1O (configuration not stated)	16.9 µM (inactive)	30.8 µM (inactive)	–	–	–	–
CC12CCC(CC1)C(C)(C)O2 [EUCALYPTOL]	–	–	38.8 µM (inactive)	> 100 µM (inactive)	11.5 µM (inactive)	GI50 (RXF 631): > 100 µM (inactive); GI50 (SNB-78): 67.6 µM (inactive); GI50 (XF498): 2.16 µM (inactive)
C=C(C(=O)O)[C@@H]1C[C@@H]2O[C@H]1[C@@H](O)[C@@H](C)CCCC(C)=CCC[C@@]2(C)O	–	> 100 µM (inactive) and > 84.9 µM (inactive)	–	–	–	–
C=CO/N=[N+](\[O-])N(CC)CC	–	> 100 µM (inactive)	–	–	–	–
COC(=O)[C@@]12C3=NO[C@]1(C(=O)OC)C(O[Si](C)(C)C(C)(C)C)[C@H]1OC(C)(C)O[C@H]1[C@@H]2C(OCc1ccccc1)CC3 (some centres not stated)	–	–	71.1 µM (inactive)	60 µM (inactive)	71.8 µM (inactive)	GI50 (HOP-18): > 100 µM (inactive)
OCCCNCc1ccccn1	> 100 µM (inactive)	> 100 µM (inactive)	–	–	–	–
O=[N+]([O-])c1c(/C=N/Nc2ccccc2)oc(-c2ccc3c(c2)OCO3)c1-c1ccc2c(c1)OCO2	–	–	2.24 µM (inactive)	0.746 µM (active)	13.8 µM (inactive)	GI50 (RXF 631): 65.8 µM (inactive); GI50 (XF498): 2.89 µM (inactive)
COC(=O)C1CCC(=O)N1CN(C(C)=O)c1ccccc1 (configuration not stated)	–	> 100 µM (inactive)	–	–	–	–

Compound	GI50 (BT-549)	GI50 (T47D)	GI50 (KM-20L2)	GI50 (LXFL 529)	GI50 (M19-MEL)	also measured
CC1(C)OC(=O)C(C#N)=C1C[n+]1ccccc1	–	> 10 µM (inactive)	–	–	–	–
COc1ccc(CNc2cnc3cc(N)ccc3n2)cc1	–	–	> 100 µM (inactive)	> 100 µM (inactive)	> 100 µM (inactive)	GI50 (SNB-78): > 100 µM (inactive); GI50 (XF498): > 100 µM (inactive)
O=C(Nc1ccc(Cl)cc1Cl)c1cc2nc3ccccc3c(=O)n2c2ccccc12	> 10 µM (inactive)	> 10 µM (inactive)	–	–	–	–
Cc1ccc(S(=O)(=O)ON=C2CC(c3ccccc3)N(C)C(c3ccccc3)C2)cc1 (configuration not stated)	–	–	23 µM (inactive) and 18.4 µM (inactive)	15.6 µM (inactive) and 16.6 µM (inactive)	20.8 µM (inactive) and 21.7 µM (inactive)	GI50 (SNB-78): 19.1 µM (inactive) and 23.1 µM (inactive)
CC(C)(C)OC(=O)Nc1nnc(S(N)(=O)=O)s1	> 100 µM (inactive)	> 100 µM (inactive)	–	–	–	–
Nc1ncnc2c1ncn2CC(O)C(=O)O (configuration not stated)	> 100 µM (inactive)	> 100 µM (inactive)	> 100 µM (inactive)	> 100 µM (inactive)	> 100 µM (inactive)	GI50 (HOP-18): 71 µM (inactive)
Cc1n[nH]c(=O)n1C1CCCC1	> 100 µM (inactive)	> 100 µM (inactive)	–	–	–	–
O=C1c2ccccc2N2OC3C4CCC(C4)C3C12c1ccccc1 (configuration not stated)	–	–	98.2 µM (inactive)	73.8 µM (inactive)	93.1 µM (inactive)	GI50 (HOP-18): > 100 µM (inactive)
CC(=O)OCC1OC(N2C(=O)CC(N)=Nc3ccccc32)C(OC(C)=O)C(OC(C)=O)C1OC(C)=O (configuration not stated)	66.2 µM (inactive)	20.5 µM (inactive)	–	–	–	–
CC[C@@H]1C[C@@H](O)[C@@H]2[C@H](O)[C@H](O)CN2C1	> 100 µM (inactive)	> 100 µM (inactive)	–	–	–	–
CC[C@@]12N=C(N(C)C)C[C@]1(O)ON=C2C	–	–	> 100 µM (inactive)	> 100 µM (inactive)	> 100 µM (inactive)	GI50 (HOP-18): > 100 µM (inactive); GI50 (XF498): > 100 µM (inactive)
CC(=O)OCCN1c2ccccc2Sc2cnccc21	> 10 µM (inactive)	> 10 µM (inactive)	–	–	–	–
COC(=O)C(Cc1ccc([N+](=O)[O-])cc1)NC(=O)C(CC(=O)OC(C)(C)C)NC(=O)OC(C)(C)C (configuration not stated) (Boc-Asp(OtBu)-[Phe(4-NO2)]-OMe; configuration not given here)	> 100 µM (inactive)	> 100 µM (inactive)	–	–	–	–
c1ccc(C2=NN3CN(N2)c2ccccc2OCCCOc2ccccc23)cc1	–	–	> 100 µM (inactive)	> 100 µM (inactive)	> 100 µM (inactive)	GI50 (SNB-78): > 100 µM (inactive); GI50 (XF498): > 100 µM (inactive)
O=C(/C=C/c1ccccc1Cl)c1ccccc1Cl	–	–	18.1 µM (inactive)	17.2 µM (inactive)	25.8 µM (inactive)	GI50 (HOP-18): 28.1 µM (inactive); GI50 (SNB-78): 22.4 µM (inactive)
